For test [1], the system named is MDA-MB231 cells. The test is described as follows: Soft-agar colony formation, MDA-MB231. The format is cell-based, human. Particulars: 10 μM. How it is done:
(§1) FIGS. 2A-G illustrate effects of 968 on the transforming activity of constitutively active Rho GTPases and human breast cancer cells. […] Cells were scored after 14 days and plotted as the percentage of the total number of colonies greater than 50 μm in diameter. Data represent the average of 3 experiments (±s.d.). […] Data represent the average of 3 experiments (±s.d.). […] Data represent the average of 3 experiments (±s.d.). […] After 24 hours at 37° C., the migratory cells were fixed, stained with GIEMSA, and counted. Data represent the average of 3 experiments (±s.d.). […] Data represent the average of 3 experiments (±s.d.). […] Data represent the average of 3 experiments (±s.d.). […] Data represent the average of 3 experiments (±s.d.).

The subject of test [2] is MDA-MB231 cells. The test is described as follows: Growth to high density and in low serum, MDA-MB231. It is filed as cell-based, human. Particulars: 10 μM. How it is done: as §1
Another test addresses T1, GAC phosphorylation (Mus musculus, UniProt D3Z7P3).
T1 construct: expressed in transfected cells; host or cells: NIH 3T3 cells (stably expressing Dbl, or parental), transient transfection
T1 sequence (D3Z7P3 55-603 isoform D3Z7P3-2 limits assumed): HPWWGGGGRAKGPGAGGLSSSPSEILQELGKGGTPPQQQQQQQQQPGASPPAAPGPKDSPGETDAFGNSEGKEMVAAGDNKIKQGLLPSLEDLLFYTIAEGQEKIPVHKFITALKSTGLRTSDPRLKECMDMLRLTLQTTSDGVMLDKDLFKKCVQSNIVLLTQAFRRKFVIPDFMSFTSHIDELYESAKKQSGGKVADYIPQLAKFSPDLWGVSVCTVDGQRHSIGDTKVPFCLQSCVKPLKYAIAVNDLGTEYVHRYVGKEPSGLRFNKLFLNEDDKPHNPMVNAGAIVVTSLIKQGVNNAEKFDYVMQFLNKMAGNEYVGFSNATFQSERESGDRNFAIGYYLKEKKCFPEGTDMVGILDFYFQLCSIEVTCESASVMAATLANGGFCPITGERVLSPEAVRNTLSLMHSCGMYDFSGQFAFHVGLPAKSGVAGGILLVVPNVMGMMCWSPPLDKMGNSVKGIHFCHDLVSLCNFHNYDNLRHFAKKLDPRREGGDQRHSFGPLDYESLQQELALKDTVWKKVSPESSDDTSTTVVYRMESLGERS
The test is described as follows: 2-D gel analysis of V5-GAC phosphorylation states from treated Dbl cells. It is filed as cell-based. Particulars: 968 10 μM, 48 hours. As to the method: NIH 3T3 cells stably expressing the Dbl oncogene, were transiently transfected with DNA encoding a VS-tagged GAC, and then one sample was treated with 968 (10 μM) for 48 hours. The cells were then harvested and the ectopically expressed GAC was isolated by immunoprecipitation via the V5 tag. The samples were then subjected to 2-D gel analysis to separate the V5-GAC by charge and size, and the V5-tagged GAC was visualized by Western blotting using an anti-V5 antibody.
GAC runs distinctly on a 2D gel depending whether it is expressed in normal (untransformed) NIH 3T3 cells or in NIH 3T3 cells which are transformed by the Dbl oncogene. Specifically, there is one major species of GAC present in NIH 3T3 cells whereas in Dbl cells, two additional species of GAC appear which migrate with a more negative charge but at the same molecular mass as the original species (FIG. 21, first and second panels). […] Additionally, it has been shown that small molecules of the 968 family which are able to inhibit GAC in vivo do so by blocking the ability of GAC to become phosphorylated. Thus, it was of great interest to identify the amino acid(s) on GAC whose phosphorylation is causal in the activation of this enzyme.

A further test addresses T2, GAC (S103A) (Mus musculus, UniProt D3Z7P3, S103A).
T2 construct: expressed in transfected cells; host or cells: Dbl-transformed NIH 3T3 cells
T2 sequence (D3Z7P3 55-603 isoform D3Z7P3-2 S103A): T1 sequence (D3Z7P3 55-603 isoform D3Z7P3-2 limits assumed) with S49A
The test is described as follows: Glutaminase activity of immunoprecipitated GAC (S103A) from treated Dbl-transformed cells. Particulars: 10 μM, 48 hours. It is filed as cell-based. How it is done: Next the effect of the substitution of an alanine for a serine at amino acid 103 on the enzymatic activity of GAC was examined, as well as its sensitivity to the small molecule, 968. […] Following transfection, the cells were treated for 48 hours with 968 (10 μM) and then harvested. The different GAC proteins were then isolated by immunoprecipitation and assayed for their glutaminase activity in the absence (i.e., basal activity) and presence of phosphate (FIG. 24). […] Initially, the high glutaminase activity of the GAC (S103A) mutant was surprising as it had been predicted that this phospho-defective mutant should have a reduced enzymatic activity. […] When this hydrogen bond is broken, either by mutating the serine to an alanine or upon the phosphorylation of this serine residue, GAC transitions to an active conformation. […] Thus, Serine 103 plays a critical role in the regulation of the glutaminase activity of GAC.

Substitutions are numbered along the chain they refer to.

On to `CN(C)c1ccc(C2Nc3ccc4ccccc4c3C3=C2C(=O)CC(C)(C)C3)cc1Br` (centres unmarked) [Compound 968, 5-[3-bromo-4-(dimethylamino)phenyl]-2,2-dimethyl-2,3,5,6-tetrahydrobenzo[a]], for which the “colony formation in soft agar” value in the test with MDA-MB231 cells [1] was “inhibits the ability”. In addition, the “growth in low serum” value in the test on MDA-MB231 cells [2] (1% fetal bovine serum) is given as “inhibits their growth”. In addition, the “growth to high density” value in the test on MDA-MB231 cells [2] (10% fetal bovine serum, 6 days) was “inhibits their growth”. Also, the “phosphorylation state of GAC” value at GAC phosphorylation was “significant reduction of at least one phosphorylation state of GAC”. On GAC (S103A), the “glutaminase activity of GAC (S103A)” value is reported as “not affected”.

The values are drawn from patent publication US20130252983A1, “ACTIVATING PHOSPHORYLATION SITE ON GLUTAMINASE C” (CORNELL UNIVERSITY, priority 2010, published 2013).
